In patent US12577262B2, “Functionalized gold carbene napthaquinone complexes for use in the treatment of cancer” (Board of Regents, The University of Texas System, priority 2019, dated 2026):
Structures can show the parent of a compound that is named as a salt.

Experiments:
[1] = system: A549 lung cancer cells; assay: Cell proliferation, 72 h IC50 (Table 3); type: cell-based, human; conditions: read-out: 72 h IC50, 3-5 separate experiments
[2] = system: HCT116 Colon; assay: Cell proliferation, 72 h IC50 (Table 3); type: cell-based, human; conditions: read-out: 72 h IC50, 3-5 separate experiments
[3] = system: L929 fibroblasts; assay: Cell proliferation, 72 h IC50 (Table 3); type: cell-based, human
Description: The initial rationale for preparing complexes 1-3 (shown below) involved a systems approach to circumventing the antioxidant network that helps give solid tumors their resiliency.

[4] = system: Panc-02 cells; assay: CRT translocation to the cell membrane, flow cytometry (percent CRT+ cells); type: cell-based, murine
Experimental: Calreticulin (CRT) translocation from the ER to the cell membrane is a critical mechanistic step in ICD induction. To correlate the findings of ER and mitochondrial stress to ICD induction, murine cancer cell lines (Panc-02 pancreas and CT26 colon) were treated with 3 and assessed for cell membrane CRT translocation (FIG. 4).

[5] = system: A549 human lung cancer cell line; assay: Cell proliferation MTT assay, Example 3 (Table 5); type: cell-based; conditions: 72 h incubation
Experimental: According to previous literature reports, BSA binding can reduce the cytotoxicity of Au(I) bis-NHC complexes (Zou et al., 2014). […] The non-conjugated alcohol 1 and Auranofin were used as benchmark comparisons. Incubation was carried out for 72 h in all cases. […] A549 cells were harvested and seeded into 96-well culture plates (Costar 07-200-90) in 100 μL of culture medium. The cells were allowed to incubate overnight at 37° C. in the presence of 5% CO2. A549 cells were seeded at a density of 1500 cells/well. […] To each well of a 96 well plate was added 100 μL of the appropriate solution. […] After removal of the medium, the resulting formazan was dissolved in […] DMSO and the respective absorbances were measured at 560-650 nm using a microplate reader (Molecular Devices, Sunnyvale, CA). Absorbance values were corrected for background and then normalized to wells containing untreated cells to allow for plate-to-plate comparisons. The resulting dose response curves were subjected to linear regression analysis (Origin by OriginLab, Inc.) for determination of IC50 values. […] Maximum concentration of DMSO used is 0.1%. This concentration of DMSO was determined to be non-toxic in separate control experiments. […] The stock solution was further diluted 10-fold in RPMI media such that the maximum drug concentration used was 10 μM for the dose dependent MTT assay.

[6] = system: A549 human lung cancer cell line; assay: Cell proliferation MTT assay, Example 4 (Table 8); type: cell-based; conditions: 72 h treatment, max DMSO 0.1%
[7] = system: A2780 Ovarian; assay: Cell proliferation, 72 h IC50 (Table 3); type: cell-based, human; conditions: read-out: 72 h IC50, 3-5 separate experiments
[8] = system: 2780CP Ovarian; assay: Cell proliferation, 72 h IC50 (Table 3); type: cell-based, human; conditions: read-out: 72 h IC50, 3-5 separate experiments
[9] = system: CT26 Colon; conditions: read-out: 72 h IC50, 3-5 separate experiments
[10] = system: CT26 mouse colorectal cancer cells; conditions: immunized with CT26 cells treated with oxaliplatin at 150 μM; challenged after 7 days

Compound	IC50 [1]	IC50 [2]	IC50 [7]	IC50 [8]	further results
CC(=O)OC[C@H]1O[C@@H]([S-])[C@H](OC(C)=O)[C@@H](OC(C)=O)[C@@H]1OC(C)=O.CCP(CC)CC.[Au+] [Auranofin]	1670 nM	1300 nM	–	–	cancer selectivity ([3]; L929 fibroblasts in comparison to A549 lung cancer cells): 2.5 fold; IC50 ([3]; read-out: 72 h IC50, L929 Fibroblasts, 72 h, 3-5 separate experiments): 4200 nM; CRT translocation to the cell membrane ([4]; flow cytometry, 3 at 1 μM, auranofin under the same conditions): ineffective; IC50 [5]: 2240 nM; IC50 [6]: 2180 nM
N.N.[Cl][Pt][Cl] [Cisplatin]	1030 nM	–	330 nM	7100 nM	–
COc1cccc2c1C(=O)c1c(O)c3c(c(O)c1C2=O)C[C@@](O)(C(=O)CO)C[C@@H]3O[C@H]1C[C@H](N)[C@H](O)[C@H](C)O1 [Doxorubicin•HCl, Doxorubicin]	–	–	–	–	IC50 ([6]; Homo sapiens): 131 nM
O=C1[O][Pt]2([NH][C@@H]3CCCC[C@H]3[NH]2)[O]C1=O [Oxaliplatin]	970 nM	500 nM	150 nM	300 nM	concentration needed to achieve the same CRT+ signal ([4]; same CRT+ signal as 3 at 1 μM): 300 µM; IC50 [9]: 2000 nM; mice remaining tumor-free at the end of the study [10]: 80%
